Experimental data from patent US20060263802A1 (priority 2003, published 2006).

Legend:
Assay type in all cases: binding
[1] = tested on: human monoclonal antibody CRJB
[2] = tested on: human monoclonal antibody CR57
[3] = tested on: human monoclonal antibody CRJA
[4] = tested on: human monoclonal antibody CRJB; remark: listed apart in the source
[5] = tested on: human monoclonal antibody CR57; remark: listed apart in the source
[6] = tested on: human monoclonal antibody CRJA; remark: listed apart in the source

Sequence	Binding of human monoclonal antibody CRJB to linear peptide (PEPSCAN-ELISA signal) [1]	Binding of human monoclonal antibody CR57 to linear peptide (PEPSCAN-ELISA signal) [2]	Binding of human monoclonal antibody CRJA to linear peptide (PEPSCAN-ELISA signal) [3]	Binding of CRJB to looped/cyclic peptide (PEPSCAN-ELISA signal) [4]	Binding of CR57 to looped/cyclic peptide (PEPSCAN-ELISA signal) [5]	Binding of CRJA to looped/cyclic peptide (PEPSCAN-ELISA signal) [6]	Binding of CRJB to linear peptide (PEPSCAN-ELISA signal) [1]	Binding of CR57 to linear peptide (PEPSCAN-ELISA signal) [2]	Binding of CRJA to linear peptide (PEPSCAN-ELISA signal) [3]	Binding of CRJB (10 μg/ml) to looped/cyclic peptide (PEPSCAN-ELISA) [4]	Binding of CR57 (10 μg/ml) to looped/cyclic peptide (PEPSCAN-ELISA) [5]	Binding of CRJA (10 μg/ml) to looped/cyclic peptide (PEPSCAN-ELISA) [6]	Binding of CRJB (10 μg/ml) to looped/cyclic peptide (PEPSCAN-ELISA signal) [4]	Binding of CR57 (10 μg/ml) to looped/cyclic peptide (PEPSCAN-ELISA signal) [5]	Binding of CRJA (10 μg/ml) to looped/cyclic peptide (PEPSCAN-ELISA signal) [6]	binding of antibody CR57 to linear peptide (PEPSCAN OD) [2]	strength of binding of CR57 (OD value compared with the other peptides / twice the average value) [2]
EVHLPDVHNQVSGVD	150	91	104	107	125	103	–	–	–	–	–	–	–	–	–	–	–
FFNGIILGPDGNVLI	–	–	–	–	–	–	143	92	119	96	72	100	–	–	–	–	–
FGKAYTIFNKTLMEA	–	–	–	–	–	–	151	90	85	78	114	96	–	–	–	–	–
FKDGDEAEDFVEVHL	76	65	85	80	106	97	–	–	–	–	–	–	–	–	–	–	–
FKRKHFRPTPDACRA	–	–	–	–	–	–	92	64	86	–	–	–	72	148	86	–	–
FNGIILGPDGNVLIP	–	–	–	–	–	–	139	61	99	88	94	106	–	–	–	–	–
FNKTLMEADAHYKSV	–	–	–	–	–	–	141	111	86	129	124	101	–	–	–	–	–
FPIYTILDKLGPWSP	–	–	–	–	–	–	105	42	88	–	–	–	63	65	57	–	–
FPSGKCSGVAVSSTY	–	–	–	–	–	–	134	64	93	–	–	–	74	90	80	–	–
FRPTPDACRAAYNWK	–	–	–	–	–	–	112	43	104	–	–	–	88	90	125	–	–
FRRLSHLRKLVPGFG	–	–	–	–	–	–	108	90	106	54	128	111	–	–	–	–	–
FRSDEIEHLVVEELV	–	–	–	–	–	–	114	86	101	79	132	94	–	–	–	–	–
FSYMELKVGYILAIK	–	–	–	–	–	–	112	89	120	–	–	–	72	104	96	–	–
FTCTGVVTEAENYTN	–	–	–	–	–	–	125	83	91	–	–	–	96	123	96	–	–
FTNSRGKRASKGSET	–	–	–	–	–	–	111	83	90	–	–	–	82	89	88	–	–
FVDERGLYKSLKGAC	–	–	–	–	–	–	121	86	116	79	97	92	–	–	–	–	–
FVEVHLPDVHNQVSG	143	92	93	101	150	103	–	–	–	–	–	–	–	–	–	–	–
FVGYVTTTFKRKHFR	–	–	–	–	–	–	111	70	79	–	–	–	82	117	102	–	–
GACKLKLCGVLGLRL	–	–	–	–	–	–	134	123	64	79	73	54	–	–	–	bound	lower than twice the average value
GCLRVGGRCHPHVNG	–	–	–	–	–	–	125	85	98	112	103	105	–	–	–	–	–
GCTNLSGFSYMELKV	–	–	–	–	–	–	114	55	72	–	–	–	55	63	55	–	–
GDEAEDFVEVHLPDV	124	46	93	87	87	82	–	–	–	–	–	–	–	–	–	–	–
GDPRYEESLHNPYPD	–	–	–	–	–	–	98	36	96	–	–	–	82	64	90	–	–
GFGKAYTIFNKTLME	–	–	–	–	–	–	123	78	98	83	94	86	–	–	–	–	–
GFSYMELKVGYILAI	–	–	–	–	–	–	111	65	91	–	–	–	57	77	71	–	–
GFTCTGVVTEAENYT	–	–	–	–	–	–	86	71	90	–	–	–	68	94	87	–	–
GFVDERGLYKSLKGA	–	–	–	–	–	–	120	84	104	86	107	87	–	–	–	–	–
GGRCHPHVNGVFFNG	–	–	–	–	–	–	119	86	110	110	134	107	–	–	–	–	–
GIILGPDGNVLIPEM	–	–	–	–	–	–	132	107	107	93	108	92	–	–	–	–	–
